Assays:
TRKA = molecular target: T1, TRKA (Homo sapiens, UniProt P04629); assay: HTRF KinEASE-TK kinase activity inhibition assay, TRKA; assay type: biochemical; details: ATP 100 µM
T1 construct: purchased Carna bioscience 08-186
Description: (§1) The following method was used to determine the inhibition degrees of the compounds of the present invention on the activity of recombinant human NTRK family kinase in vitro. In this method, HTRF®KinEASE-TK tyrosine kinase kit (article number: 62TK0PEB) of Cisbio company was used, and the principle of the kit was based on time-resolved fluorescence resonance energy transfer (TF-FRET), and the inhibition of the compounds on the activity of the NTRK kinase was reflected by determining a phosphorylation degree of a biotinylated polypeptide substrate mediated by NTRK kinase. For detailed experimental operation, please refer to the kit instruction. Recombinant human wild-type NTRK proteins were purchased from Carna bioscience (the article numbers were TRKA #08-186, TRKB #08-187 and TRKC #08-197 respectively), and recombinant human mutant NTRK proteins were purchased from SignalChem (the article numbers were TRKA G595R #N16-12BG-10, TRKA G667C # N16-12CG-10, and TRKC G623R # N18-12CH-10 respectively).
(§2) The experimental methods were operated according to the steps in the kit instruction, and were briefly described as follows: a test compound was first dissolved in DMSO to prepare a storage solution, and then diluted in gradient with a buffer provided in the kit. A final concentration of the test compound in the reaction system ranged from 1,000 nM to 0.004 nM. An ATP Km value concentration of each NTRK protein was determined by using an ATP solution diluted in gradient (Sangon Biotech (Shanghai) Co., Ltd., A600311). According to the Km value obtained, the ATP concentrations in the reaction system were set as 100 µM for TRKA, 10 µM for TRKB, 50 µM for TRKC, 7 µM for TRKA(G595R), 1 µM for TRKA(G667C) and 100 µM for TRKC(G623R). The reaction was carried out in a 384-well microplate. Firstly, the compound and a certain amount of corresponding NTRK protein were added to the wells and incubated for 5 minutes to 10 minutes at room temperature. Then, the ATP solution and the biotinylated polypeptide substrate solution were added to the reaction solution and incubated with shaking at room temperature for 60 minutes. Then, an anti-phosphorylated tyrosine antibody coupled with a europium compound and streptavidin coupled with modified allophycocyanin XL665 were added to the reaction, and continuously incubated with shaking at room temperature for 1 hour. After incubation, fluorescence intensity values of each well at an excitation wavelength of 304 nm, and emission wavelengths of 620 nm and 665 nM were determined in a TF-FRET mode on a microplate reader. Compared with the fluorescence intensity ratio of a control group (0.1% DMSO), the percentage inhibition rates of the compound at each concentration were calculated, and the IC50 value of the compound was obtained by performing nonlinear regression analysis for logarithmic value of the compound concentration - inhibition rate by GraphPad Prism 5 software, which can be seen in Table 1. Table 1 IC50 data of the compounds of the present invention on TRK enzyme activity inhibition

TRKA(G595R) = molecular target: T2, TRKA(G595R) (Homo sapiens, UniProt P04629, G595R); assay: HTRF KinEASE-TK kinase activity inhibition assay, TRKA(G595R); assay type: biochemical; details: ATP 7 µM
T2 construct: purchased SignalChem N16-12BG-10
Description: as §1, §2

[1] = tested on: KARPAS-299 (human anaplastic large cell lymphoma cell); assay: Cell proliferation assay (CellTiter-Glo), KARPAS-299; assay type: cell-based; details: 72 hours, NPM-ALK fusion
Description: The following method was used to determine the effects of the compounds of the present invention on cell proliferation. H2228 cells (containing EML4-ALK fusion) were purchased from Cell Resource Center of Shanghai Institutes for Biological Sciences, Chinese Academy of Sciences. KARPAS-299 cells (containing NPM-ALK fusion) were purchased from Nanjing COBIOER Biotechnology Co., Ltd. The above two cell lines were used to determine the inhibition of the compounds on cell activities. The cells were cultured in an RPMI 1640 medium containing 10% fetal bovine serum, 100 U penicillin, 100 µg/mL streptomycin, and 1 mM Sodium Pyruvate. The cells were cultured in a 5% CO2 incubator at 37°C. The activity of the cells was determined by CellTiter-Glo® Luminescent Cell Viability Assay kit (Promega, article number: G7573).
The experimental methods were operated according to the steps in the kit instruction, and were briefly described as follows: a test compound was first dissolved in DMSO to prepare a storage solution, and then diluted in gradient with the corresponding cell culture medium to prepare a test sample. […] After the culture, 50 µL of CellTiter-Glo detection solution was added to each well, shaken for 5 minutes, and then stood for 10 minutes, and the luminescence values of each well were read on the microplate reader using a Luminance mode. […]

T2 sequence (P04629 33-796 G595R): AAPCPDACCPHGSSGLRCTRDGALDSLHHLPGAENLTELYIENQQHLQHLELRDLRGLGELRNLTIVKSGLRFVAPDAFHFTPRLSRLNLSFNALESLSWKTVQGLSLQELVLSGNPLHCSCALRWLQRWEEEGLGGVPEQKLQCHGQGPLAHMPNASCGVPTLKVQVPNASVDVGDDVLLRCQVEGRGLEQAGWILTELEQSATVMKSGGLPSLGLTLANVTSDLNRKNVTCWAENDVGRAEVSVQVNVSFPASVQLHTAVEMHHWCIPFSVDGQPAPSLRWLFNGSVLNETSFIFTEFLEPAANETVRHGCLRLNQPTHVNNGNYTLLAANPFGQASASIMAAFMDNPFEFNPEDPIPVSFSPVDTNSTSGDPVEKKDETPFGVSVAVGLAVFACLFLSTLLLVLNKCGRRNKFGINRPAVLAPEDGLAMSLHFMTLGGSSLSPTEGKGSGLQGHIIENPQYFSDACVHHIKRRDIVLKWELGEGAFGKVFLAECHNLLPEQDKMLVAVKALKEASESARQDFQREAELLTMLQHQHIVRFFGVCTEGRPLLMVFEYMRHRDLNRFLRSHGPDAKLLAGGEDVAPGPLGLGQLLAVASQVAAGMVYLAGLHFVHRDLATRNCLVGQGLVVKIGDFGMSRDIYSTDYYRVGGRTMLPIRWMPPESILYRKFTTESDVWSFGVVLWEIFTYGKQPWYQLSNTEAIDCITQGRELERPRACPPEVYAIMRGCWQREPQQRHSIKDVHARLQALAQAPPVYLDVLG
T1 sequence (P04629 33-796): as the sequence (P04629 33-796 G595R) above, with R563G counted along it

| Compound | IC50 (TRKA) | IC50 (TRKA(G595R)) | IC50 [1] |
| --- | --- | --- | --- |
| C[C@H]1Nc2ccn3ncc(c3n2)C(=O)NC[C@@]2(C)Cc3cc(F)cc1c3O2 [Example 8, (3R,11R)-6-fluoro-3,11-dimethyl-10-oxa-2,13,17,1 8,21-pentaazapentacyclo[13.5.2.1^8,11.0^4,9.0^18,22]tric osa-1(21),4,6,8,15(22),16,19-heptaen-14-one] | 0.56 nM | 2.03 nM | 65.5 nM |
| C[C@H]1Nc2ccn3nc(N)c(c3n2)C(=O)NC[C@@]2(C)Cc3cc(F)cc1c3O2 [Example 25, (3R,11R)-16-amino-6-fluoro-3,11-dimethyl-10-oxa-2,13,17,18,21-pentaazapentacyclo[13.5.2.1^8,11.0^4,9. 0^18,22]tricosa-1(21),4,6,8,15(22),16,19-heptaen-14-one] | 0.82 nM | 5.4 nM | 52.7 nM |
